In patent publication US6972319B1, “Pituitary adenylate cyclase activating peptide (PACAP)receptor 3 (R3) agonists and their pharmacological methods of use” (priority 1999, dated 2005):
No end group written: not given here.

Tests used:
PACAP-R2 = biological target: T1, PACAP-R2 (Homo sapiens, UniProt P32241); assay: Cyclic AMP SPA on CHO cells transfected with PACAP-R2; assay type: cell-based; settings: cAMP SPA, concentration at which 50% of maximum PACAP27 activity is achieved, NA = no detectable activities, read-out: R2 EC50
T1 construct: expressed in transfected cells; host or cells: CHO cells
T1 sequence (P32241 31-457): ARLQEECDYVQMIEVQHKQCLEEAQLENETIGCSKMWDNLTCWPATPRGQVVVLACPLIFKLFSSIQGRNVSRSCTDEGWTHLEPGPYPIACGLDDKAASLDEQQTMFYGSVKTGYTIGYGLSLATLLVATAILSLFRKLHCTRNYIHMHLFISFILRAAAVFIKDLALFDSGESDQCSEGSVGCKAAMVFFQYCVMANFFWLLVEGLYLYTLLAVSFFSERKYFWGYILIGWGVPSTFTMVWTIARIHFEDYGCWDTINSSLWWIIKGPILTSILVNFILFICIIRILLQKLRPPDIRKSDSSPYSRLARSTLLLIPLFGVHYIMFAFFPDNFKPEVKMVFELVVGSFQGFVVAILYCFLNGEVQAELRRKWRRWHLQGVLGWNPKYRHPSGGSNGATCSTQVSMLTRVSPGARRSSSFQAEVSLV
Outline: (§1)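 cAMP SPA readout; CHO stable lines, 24 h culture before use. Peptide treatment 15 min, 37 C, buffer with IBMX 100 uM plus trypsin inhibitor and bacitracin. EC50 = conc. reaching half of max PACAP27 response; R3 selectivity = EC50(R2)/EC50(R3).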

PACAP-R3 = biological target: T2, PACAP-R3 (Homo sapiens, UniProt P41587); assay: Cyclic AMP SPA on CHO cells expressing PACAP R3; assay type: cell-based; design: expressed in transfected cells; host or cells: CHO cells (Geneticin selection); settings: for EC50: cAMP SPA, CHO cells transfected with PACAP-R3, concentration at which 50% of maximum PACAP27 activity is achieved, NA = no detectable activities, read-out: R3 EC50; for R3 Selectivity: ratio of EC50 at R2 versus EC50 at R3
T2 sequence (P41587 24-438): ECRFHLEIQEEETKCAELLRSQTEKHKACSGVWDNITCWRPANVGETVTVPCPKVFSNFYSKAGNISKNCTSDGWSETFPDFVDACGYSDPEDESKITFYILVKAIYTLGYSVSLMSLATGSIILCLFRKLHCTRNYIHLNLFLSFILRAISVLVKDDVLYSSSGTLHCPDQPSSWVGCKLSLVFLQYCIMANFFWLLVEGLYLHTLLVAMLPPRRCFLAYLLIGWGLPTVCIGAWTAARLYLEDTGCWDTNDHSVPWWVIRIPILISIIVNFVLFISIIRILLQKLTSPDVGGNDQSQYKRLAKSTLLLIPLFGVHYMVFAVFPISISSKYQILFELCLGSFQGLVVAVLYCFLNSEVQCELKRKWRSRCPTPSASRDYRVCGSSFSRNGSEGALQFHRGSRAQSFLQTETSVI
Outline: as §1

| Substance | EC50 (PACAP-R2) | EC50 (PACAP-R3) | R3 Selectivity (PACAP-R3) |
| --- | --- | --- | --- |
| HSDAVFTDNYTRLRKQMAAKKYLNSIKNKR [Peptide R3P65] | 80 nM | 0.6 nM | 130 |
| HSDAVFTDNYTRLRKQMAAKKYLNSIKNKT [Peptide R3P168] | 60 nM | 0.2 nM | 300 |
| HSDAVFTDNYTRLRKQMAAKKYLNSIPNRI [rR3P179] | 230 nM | 1.5 nM | 150 |
| HSDAVFTDNYTRLRKQMAAKKYLNSIKNER [Peptide R3P137] | 30 nM | 0.3 nM | 100 |
| HSDGIFTDSYSRYRKQMAVKKYLAAVKKYLAAVRHG-NH2 [Peptide R3P17] | 9 nM | 4 nM | 2 |
| H-HSDGIFTDSYSRYRKQMAKKKYLAAVL-NH2 [PAC19] | 8 nM | 0.4 nM | 20 |
| HSDGIFTDSYSRYRKQMAVKKYLKAVL-NH2 [PAC24] | 0.3 nM | 0.2 nM | 1.5 |
| HSDAVFTDNYTRLRKQVAAKKYLQSILKKR [Peptide R3P84] | 2.5 nM | 0.06 nM | 40 |
| HSDAVFTDNYTRLRKQMAAKKYLNSIKNKI [Peptide R3P160] | 100 nM | 0.2 nM | 500 |
| HSDAVFTDNYTRLRKQMAAKKYLNSIKNKK [Peptide R3P161] | 60 nM | 0.2 nM | 300 |
| HSDGIFTDSYSRYRKQMAVKKKLAAVL-NH2 [PAC22] | 2 nM | 15 nM | 0.1 |
| HSDAVFTDQYTRLRKQMAAKKYLNSIKNKRY [Peptide R3P71] | 56 nM | 0.09 nM | 660 |
| H-HSDAVFTDNYTRLRKQMAAKKYLNSIDNKR [Peptide R3P118] | 15 nM | 0.5 nM | 30 |
| HSDAVFTDNYTRLRKQMAAKKYLQSIKNKRY [Peptide R3P69] | 90 nM | 0.5 nM | 190 |
| HSDAVFTDNYTRLRKQMAVKKYLNSILK [Peptide R3P43] | 0.8 nM | 0.08 nM | 10 |
| HSDGIFTDKYSRYRKQMAVKKYLAAVL-NH2 [PAC9] | 0.9 nM | 0.7 nM | 1 |
| HSDAVFTDNYTRLRKQLAAKKYLNDIKK [Peptide R3P33] | > 100 nM | 0.5 nM | >200 |
| HSDAVFTDNYTRLRKQMAFKKYLNSIKNKR [Peptide R3P100] | 10 nM | 0.3 nM | 30 |
| HSDAVFTDNYTRLRKQMAAKKYLNSIKNRI [rR3P174] | 18 nM | 0.2 nM | 90 |
| HSDAVFTDNYTRLRKQMAAKKYLNSIKNMR [Peptide R3P143] | 6 nM | 0.2 nM | 30 |
| HSDAVFTDNYTRLRKQVAAKKYLQSILKK [Peptide R3P85] | 5 nM | 0.18 nM | 30 |
| HSDAVFTDNYTRLRKQMAAKKYLNSIKKKR [Peptide R3P53] | 500 nM | 0.2 nM | 2500 |
| HSDAVFTDNYTRLRKQMAAKKYLNSIKNKE [Peptide R3P156] | 100 nM | 1 nM | 100 |
| HSDAVFTDNYTRLRKQMAAKKYLNSIKNPR [Peptide R3P145] | 50 nM | 0.5 nM | 100 |
| HSDAVFTDNYTRLRKQMAEKKYLNSIKNKR [Peptide R3P99] | 40 nM | 1 nM | 40 |
| HSDAVFTDNYTRLRKQLAVKKYLNDIKNGGT [Peptide R3P29] | > 100 nM | 0.5 nM | >200 |
| HSDAVFTDNYTRLRKQMAAKKYLNSIKN [Peptide R3P49] | 8 nM | 0.27 nM | 30 |
| HSDAVFTDNYTRLRKQMAAKKYLNSIKNKV [Peptide R3P169] | 60 nM | 0.2 nM | 300 |

| Substance | EC50 (PACAP-R2) | EC50 (PACAP-R3) | R3 Selectivity (PACAP-R3) |
| --- | --- | --- | --- |
| HSDAVFTDNYTRLRKQMAAKKYLNSIKNSR [Peptide R3P148] | 30 nM | 0.3 nM | 100 |
| HSDAVFTDNYTRLRKQMAAKKYLNSIKNLR [Peptide R3P142] | 6 nM | 0.2 nM | 30 |
| HSDGIFTDSYSRYRKQKAVKKYLAAVL-NH2 [PAC17] | 0.25 nM | 0.15 nM | 1.6 |
| HSDAVFTDNYTRLRKQMAAKKYLNSIVNKR [Peptide R3P131] | 20 nM | 0.3 nM | 70 |
| HSDAVFTDNYTRLRKQMAAKKYLNSIWNKR [Peptide R3P132] | 10 nM | 0.2 nM | 50 |
| H-HSDAVFTDNYTRLRKQMAAKHYLNSIKNKRY [Peptide R3P74] | 90 nM | 0.6 nM | 150 |
| H-HSDAVFTDNYTRLRKQLAAKKYLNDIKKNQ [Peptide R3P35] | > 100 nM | 2.6 nM | >40 |
| HSDAVFTDNYTRLRKQMARKKYLNSIQNRI [rR3P187] | > 130 nM | 1.6 nM | >80 |
| HSDAVFTDNYTRLRKQVAAKKYLNSIKKKR [Peptide R3P78] | 250 nM | 1.1 nM | 230 |
| HSDAVFTDNYTRLRKQMAAKKYLNSINNKR [Peptide R3P125] | 60 nM | 2 nM | 30 |
| HSDAVFTDNYTRLRKQMAAKKYLNSIKNNR [Peptide R3P144] | 300 nM | 3 nM | 100 |
| H-HSDAVFTDNYTRLRKQMAKKKYLNSIKNKR [Peptide R3P104] | 100 nM | 0.2 nM | 500 |
| H-HSDGIFTDSYSRYRKQMAVKKYLAAVKQGGT-NH2 [Peptide R3P16] | 14 nM | 10 nM | 1.4 |
| HSDGIFTDSYSRYRKQMAVKKYLAAKL-NH2 [PAC26] | 0.25 nM | 0.3 nM | 1 |
| HSDAVFTDNYTRLRKQMAAKKYLNSIQNRI [rR3P184] | 10 nM | 0.37 nM | 30 |
| HSDAVFTDNYTRLRKQMAAKKYLNSIRNRI [rR3P189] | 1.3 nM | 0.04 nM | 30 |
| HSDAVFTDNYTRLRKQMAHKKYLNSIKNKR [Peptide R3P102] | 300 nM | 60 nM | 5 |
| Ac-HSDAVFTENYTKLRKQLAAKKYLNDLKKGGT-NH2 [Peptide R3P1] | > 100 nM | 2 nM | >50 |
| HSDAVFTDNYTRLRKQMAAKKYLNSIRNKR [Peptide R3P128] | 60 nM | 0.3 nM | 200 |
| H-HSDAVFTDNYTRLRKQMAAKKYLNSIKNKD [Peptide R3P155] | 40 nM | 0.4 nM | 100 |
| HSDAVFTDNYTRLRKQVAAKKYLQSILNK [Peptide R3P94] | 9 nM | 0.09 nM | 100 |
| HSDGIFTDSYSRKRKQMAVKKYLAAVL-NH2 [PAC13] | 3 nM | 0.5 nM | 6 |
| HSDKIFTDSYSRYRKQMAVKKYLAAVL-NH2 [PAC4] | 45 nM | 7 nM | 6 |
| HSDAVFTDNYTRLRKQMASKKYLNSIPNRI [rR3P183] | > 150 nM | 5.4 nM | >30 |
| HSDAVFTDNYTRLRKQMAAHKYLNSIKNKRY [Peptide R3P73] | 50 nM | 0.3 nM | 170 |
| HSDAVFTDNYTRLRKQMAAKKYLNSIFNKR [Peptide R3P120] | 10 nM | 0.2 nM | 50 |
| HSDAVFTDNYTRLRKQLAAKKYLNDILNGGT [Peptide R3P27] | 6.4 nM | 0.8 nM | 8 |
